Results taken from ChEMBL document CHEMBL1155059, “Synthesis and biological evaluation of trisubstituted imidazole derivatives as inhibitors of p38alpha mitogen-activated protein kinase” (Bioorg Med Chem Lett, 2008).

Key:
[1] = biological target: Mitogen-activated protein kinase 14 (Homo sapiens, UniProt Q16539); assay: Inhibition of human recombinant p38alpha MAPK expressed in Escherichia coli by radioisotopic protein kinase assay
TGF-beta receptor type-1 = biological target: T1, TGF-beta receptor type-1 (Homo sapiens, UniProt P36897); assay: Inhibition of GST fused human recombinant ALK5 expressed in Sf9 cells by radioisotopic protein kinase assay
T1 sequence (P36897 whole entry): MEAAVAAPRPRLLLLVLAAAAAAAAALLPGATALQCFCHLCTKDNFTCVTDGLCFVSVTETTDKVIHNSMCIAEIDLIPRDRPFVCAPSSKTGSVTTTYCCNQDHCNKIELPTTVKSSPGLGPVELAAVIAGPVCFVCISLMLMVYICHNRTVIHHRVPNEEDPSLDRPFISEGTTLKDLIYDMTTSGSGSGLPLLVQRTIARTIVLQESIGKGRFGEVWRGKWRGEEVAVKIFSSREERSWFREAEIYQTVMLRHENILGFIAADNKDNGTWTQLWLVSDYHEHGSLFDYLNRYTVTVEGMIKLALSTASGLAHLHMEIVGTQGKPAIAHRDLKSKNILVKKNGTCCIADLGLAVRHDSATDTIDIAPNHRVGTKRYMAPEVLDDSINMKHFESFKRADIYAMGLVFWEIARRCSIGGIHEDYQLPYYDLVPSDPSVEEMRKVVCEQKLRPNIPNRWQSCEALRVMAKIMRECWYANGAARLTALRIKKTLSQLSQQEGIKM

Chain of Mitogen-activated protein kinase 14 (Q16539 whole entry, the tested form may be a part): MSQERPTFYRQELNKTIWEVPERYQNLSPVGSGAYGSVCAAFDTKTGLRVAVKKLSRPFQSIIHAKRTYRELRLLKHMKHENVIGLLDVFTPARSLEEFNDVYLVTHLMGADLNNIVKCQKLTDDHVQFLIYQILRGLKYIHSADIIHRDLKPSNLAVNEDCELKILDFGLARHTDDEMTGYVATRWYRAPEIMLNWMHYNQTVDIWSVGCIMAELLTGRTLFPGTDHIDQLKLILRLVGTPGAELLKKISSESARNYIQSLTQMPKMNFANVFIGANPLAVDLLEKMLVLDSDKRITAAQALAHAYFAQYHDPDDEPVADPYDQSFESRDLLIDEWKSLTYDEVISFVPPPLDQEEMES

Row | Compound | IC50 [1] [µM] | IC50 (TGF-beta receptor type-1) [µM]
1 | C[C@H](Nc1nccc(-c2ncn(Cc3cccc(C(N)=O)c3)c2-c2ccc(F)cc2)n1)c1ccccc1 | > 1 | > 1
2 | COc1nccc(-c2ncn(Cc3cccc(C#N)c3)c2-c2ccc(F)cc2)n1 | > 1 | > 1
3 | COc1nccc(-c2c(-c3ccc(F)cc3)ncn2Cc2ccc(C#N)cc2)n1 | 0.859 | > 1
4 | N#Cc1cccc(Cc2nc(-c3ccc(F)cc3)c(-c3ccnc(NC4CC4)n3)[nH]2)c1 | 0.0544 | > 1
5 | COc1nccc(-c2[nH]c(Cc3cccc(C#N)c3)nc2-c2ccc(F)cc2)n1 | 0.0628 | > 1
6 | NC(=O)c1cccc(Cn2cnc(-c3ccnc(N)n3)c2-c2ccc(F)cc2)c1 | > 1 | > 1
7 | NC(=O)c1cccc(Cn2cnc(-c3ccc(F)cc3)c2-c2ccnc(N)n2)c1 | 0.344 | > 1
8 | C[C@H](Nc1nccc(-c2ncn(Cc3ccc(C(N)=O)cc3)c2-c2ccc(F)cc2)n1)c1ccccc1 | > 1 | > 1
9 | COc1nccc(-c2c(-c3ccc(F)cc3)ncn2Cc2cccc(C#N)c2)n1 | 0.26 | > 1
10 | COc1nccc(-c2c(-c3ccc(F)cc3)ncn2Cc2ccc(C(N)=O)cc2)n1 | 0.916 | > 1
11 | C[C@H](Nc1nccc(-c2c(-c3ccc(F)cc3)ncn2Cc2cccc(C(N)=O)c2)n1)c1ccccc1 | 0.0551 | > 1
12 | N#Cc1cccc(Cn2cnc(-c3ccc(F)cc3)c2-c2ccnc(NC3CC3)n2)c1 | 0.0626 | > 1
13 | COc1nccc(-c2[nH]c(Cc3cccc(C(N)=O)c3)nc2-c2ccc(F)cc2)n1 | 0.0485 | > 1
14 | N#Cc1cccc(Cn2cnc(-c3ccnc(NC4CC4)n3)c2-c2ccc(F)cc2)c1 | > 1 | > 1
15 | C[C@H](Nc1nccc(-c2[nH]c(Cc3cccc(C#N)c3)nc2-c2ccc(F)cc2)n1)c1ccccc1 | 0.0954 | > 1
16 | COc1nccc(-c2c(-c3ccc(F)cc3)ncn2Cc2cccc(C(N)=O)c2)n1 | 0.225 | > 1
17 | COc1ccc(CNc2nccc(-c3c(-c4ccc(F)cc4)ncn3Cc3cccc(C#N)c3)n2)cc1 | 0.191 | > 1
18 | C[C@H](Nc1nccc(-c2[nH]c(Cc3cccc(C(N)=O)c3)nc2-c2ccc(F)cc2)n1)c1ccccc1 | 0.078 | > 1

Row | Compound | IC50 [1] [µM] | IC50 (TGF-beta receptor type-1) [µM]
19 | COc1ccc(CNc2nccc(-c3[nH]c(Cc4cccc(C#N)c4)nc3-c3ccc(F)cc3)n2)cc1 | 0.148 | > 1
20 | C[C@H](Nc1nccc(-c2ncn(Cc3ccc(C#N)cc3)c2-c2ccc(F)cc2)n1)c1ccccc1 | > 1 | > 1
21 | N#Cc1cccc(Cn2cnc(-c3ccc(F)cc3)c2-c2ccnc(N)n2)c1 | 0.101 | > 1
22 | COc1nccc(-c2ncn(Cc3cccc(C(N)=O)c3)c2-c2ccc(F)cc2)n1 | > 1 | > 1
23 | COc1nccc(-c2ncn(Cc3ccc(C#N)cc3)c2-c2ccc(F)cc2)n1 | > 1 | > 1
24 | C[C@H](Nc1nccc(-c2c(-c3ccc(F)cc3)ncn2Cc2ccc(C#N)cc2)n1)c1ccccc1 | 0.0871 | > 1
25 | N#Cc1cccc(Cn2cnc(-c3ccnc(N)n3)c2-c2ccc(F)cc2)c1 | > 1 | > 1
26 | COc1ccc(CNc2nccc(-c3ncn(Cc4cccc(C#N)c4)c3-c3ccc(F)cc3)n2)cc1 | > 1 | > 1
27 | Cc1cccc(-c2[nH]c(Cc3cccc(C(N)=O)c3)nc2-c2ccc3nccnc3c2)n1 | 4.3 | 
28 | C[C@H](Nc1nccc(-c2c(-c3ccc(F)cc3)ncn2Cc2ccc(C(N)=O)cc2)n1)c1ccccc1 | 0.0556 | > 1
29 | N#Cc1cccc(Cc2nc(-c3ccc(F)cc3)c(-c3ccnc(N)n3)[nH]2)c1 | 0.028 | > 1
30 | C[C@H](Nc1nccc(-c2ncn(Cc3cccc(C#N)c3)c2-c2ccc(F)cc2)n1)c1ccccc1 | > 1 | > 1
31 | C[C@H](Nc1nccc(-c2c(-c3ccc(F)cc3)ncn2Cc2cccc(C#N)c2)n1)c1ccccc1 | 0.14 | > 1
32 | NC(=O)N(c1nc(-c2ccc(F)cc2)cs1)c1c(Cl)cccc1Cl | 0.822 | 
33 | NC(=O)c1cccc(Cn2cnc(-c3ccnc(NC4CC4)n3)c2-c2ccc(F)cc2)c1 | > 1 | > 1
34 | COc1nccc(-c2ncn(Cc3ccc(C(N)=O)cc3)c2-c2ccc(F)cc2)n1 | > 1 | > 1
35 | NC(=O)c1cccc(Cc2nc(-c3ccc(F)cc3)c(-c3ccnc(NC4CC4)n3)[nH]2)c1 | 0.031 | > 1
36 | NC(=O)c1cccc(Cn2cnc(-c3ccc(F)cc3)c2-c2ccnc(NC3CC3)n2)c1 | 0.0276 | > 1
